This note sets out measurements from publication PMC9596378, “Discovery and molecular basis of subtype-selective cyclophilin inhibitors” (Nature Chemical Biology, 2022).

Where “and” joins values, the source holds several entries; their conditions need not be identical. Equal entries are not always repeated. Where two headings read alike, the source gives them in different places.

The target of data set [1] is CypD (Homo sapiens, UniProt P30405). The experiment in a line: Chymotrypsin coupled prolyl-isomerase assay. To be noted: for CypD prolyl-isomerase assay raw dose-response value: Fig. 3b source data, replicates.
Data set [2] relates to HeLa cells. The experiment in a line: Fluorescence microscopy of Cy5-conjugated compounds. Format: cell-based, human. How it is done:
Cells were seeded into 96-well, black, clear-bottom, TC-treated plates, in DMEM supplemented with 10% FBS 24 h prior at a density where wells were ~80% confluent at the time of the experiment. Medium was removed and cells were then stained with 50 µL mixture containing Cy5-labeled compound (6 µM) in Kreb’s ringer solution HEPES buffered pH 7.2 (KRB), for 1 h at 37 °C. Then, 50 µL Hoechst 33342 (8 µM) and Mitotracker Green FM (0.1 µM) in KRB was added directly to wells containing cells and incubated for 15 min at 37 °C. Medium was removed and cells were washed twice with 100 µL KRB. Cells were then kept adherent to the wells in 100 µL KRB for imaging. Fluorescence microscopy was conducted on an Opera Phenix Plus High-Content Screening System, using Alexa 488, Alexa 647, and Hoescht 33342 channels. Images were analyzed using Harmony v.4.9.

The target of data set [3] is T1, CypB (Homo sapiens, UniProt P23284).
T1 construct: PPIB (UniProtKB Entry P23284: residues 34–216); His6 with TEV site (2BT vector leader) (N); made in house; host or cells: E. coli BL21(DE3)
The data set is described as follows: biochemical. To be noted: for CypB prolyl-isomerase assay raw dose-response value: Fig. 3b source data, replicates. In a few lines:
(§1)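 Cyclophilin (5 nM final) in 25 mM HEPES pH 7.3, 100 mM NaCl, 0.01% Triton X-100 was preincubated with compound (0.25% DMSO) 5 min at 2–3 °C, then with 25 µM α-chymotrypsin 5 min. Suc-AAPF-AMC (5 µM, in LiCl/trifluoroethanol) started the reaction; AMC fluorescence read every 1 s for 330 s.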

Data set [4] deals with T2, PPWD1 (Homo sapiens, UniProt Q96BP3).
T2 construct: PPWD1 (UniProtKB Entry Q96BP3: residues 473–646); host or cells: E. coli BL21(DE3)
T2 sequence (Q96BP3 473-646): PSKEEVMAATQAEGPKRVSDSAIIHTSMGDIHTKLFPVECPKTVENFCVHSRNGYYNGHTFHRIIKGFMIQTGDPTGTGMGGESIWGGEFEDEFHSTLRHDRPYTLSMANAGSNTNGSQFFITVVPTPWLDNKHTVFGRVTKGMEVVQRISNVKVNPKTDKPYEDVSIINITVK
The data set is described as follows: Chymotrypsin coupled prolyl-isomerase assay. Format: biochemical. To be noted: for IC50: wild-type PPWD1, read-out: Wild-Type Cyclophilin Prolyl Isomerase Inhibition IC50 Values, PPWD1; for PPWD1 prolyl-isomerase assay raw dose-response value: Fig. 3b source data, replicates.

The target of data set [5] is T3, CypD K118A (Homo sapiens, UniProt P30405, K118A).
T3 construct: made in house; host or cells: E. coli BL21(DE3)
The data set is described as follows: Chymotrypsin coupled prolyl-isomerase assay. It counts as biochemical. To be noted: prolyl-isomerase inhibition. In a few lines:
as §1

In data set [6] the target is T4, CypA E81S/K82R (Homo sapiens, UniProt P62937, E81S/K82R).
T4 construct: Lane 12- SNA-CypA E81S/K82R (1-165);; His6 tag with TEV site (2BT vector); SNA remnant stays on the N-terminus (N, cleaved yes); made in house; host or cells: E. coli BL21(DE3)
The data set is described as follows: Chymotrypsin coupled prolyl-isomerase assay. Format: biochemical. Particulars: mutant CypA E81S/K82R; read-out: Mutant Cyclophilin Prolyl Isomerase Inhibition IC50 Values, CypA E81S/K82R. In a few lines:
as §1

For data set [7], the target named is T5, CypD R124A (Homo sapiens, UniProt P30405, R124A).
T5 construct: made in house; host or cells: E. coli BL21(DE3)
The experiment in a line: Chymotrypsin coupled prolyl-isomerase assay. It counts as biochemical. In a few lines:
as §1

Data set [8] addresses T6, CypD K118E (Homo sapiens, UniProt P30405, K118E).
T6 construct: made in house; host or cells: E. coli BL21(DE3)
The experiment in a line: Chymotrypsin coupled prolyl-isomerase assay. Format: biochemical. To be noted: for IC50: prolyl-isomerase inhibition. Put shortly: as §1

The target in data set [9] is T7, CypD R124K (Homo sapiens, UniProt P30405, R124K).
T7 construct: made in house; host or cells: E. coli BL21(DE3)
The data set is described as follows: Chymotrypsin coupled prolyl-isomerase assay. It counts as biochemical. Particulars: mutant CypD R124K; read-out: Mutant Cyclophilin Prolyl Isomerase Inhibition IC50 Values, CypD R124K. Put shortly: as §1

The mark [10] stands for this setting: read-out: Wild-Type Cyclophilin Prolyl Isomerase Inhibition IC50 Values, CypD, wild-type CypD.
[11] abbreviates: wild-type CypB, read-out: Wild-Type Cyclophilin Prolyl Isomerase Inhibition IC50 Values, CypB.
The mark [12] stands for this setting: prolyl-isomerase inhibition, 5 nM cyclophilin, read-out: IC50 CypB.

CypD, sequence (P30405 45-207): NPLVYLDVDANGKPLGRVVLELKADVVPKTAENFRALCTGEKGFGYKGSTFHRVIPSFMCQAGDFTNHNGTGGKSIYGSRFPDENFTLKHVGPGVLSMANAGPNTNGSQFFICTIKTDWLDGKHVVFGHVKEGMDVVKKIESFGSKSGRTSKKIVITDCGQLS
T1 sequence (P23284 34-216): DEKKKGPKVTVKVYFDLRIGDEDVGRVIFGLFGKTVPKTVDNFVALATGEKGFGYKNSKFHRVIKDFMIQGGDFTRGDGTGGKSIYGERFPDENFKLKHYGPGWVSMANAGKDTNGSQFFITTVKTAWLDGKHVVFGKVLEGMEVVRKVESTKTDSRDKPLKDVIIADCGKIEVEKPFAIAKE
T6 sequence (P30405 45-207 K118E): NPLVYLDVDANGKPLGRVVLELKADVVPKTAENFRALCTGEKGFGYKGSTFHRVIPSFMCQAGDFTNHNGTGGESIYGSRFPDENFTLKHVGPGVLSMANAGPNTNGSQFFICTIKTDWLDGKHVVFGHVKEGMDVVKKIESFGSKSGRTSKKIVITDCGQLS
T5 sequence (P30405 45-207 R124A): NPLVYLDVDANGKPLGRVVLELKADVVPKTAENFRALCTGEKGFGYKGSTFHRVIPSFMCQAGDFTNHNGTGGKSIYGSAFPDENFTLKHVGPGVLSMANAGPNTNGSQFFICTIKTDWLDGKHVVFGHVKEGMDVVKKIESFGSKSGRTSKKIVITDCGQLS
T7 sequence (P30405 45-207 R124K): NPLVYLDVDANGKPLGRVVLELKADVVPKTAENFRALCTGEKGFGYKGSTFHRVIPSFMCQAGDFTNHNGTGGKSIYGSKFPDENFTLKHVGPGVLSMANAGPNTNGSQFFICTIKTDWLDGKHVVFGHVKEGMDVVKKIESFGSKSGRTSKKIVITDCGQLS
T4 sequence (P62937 whole entry E81S/K82R): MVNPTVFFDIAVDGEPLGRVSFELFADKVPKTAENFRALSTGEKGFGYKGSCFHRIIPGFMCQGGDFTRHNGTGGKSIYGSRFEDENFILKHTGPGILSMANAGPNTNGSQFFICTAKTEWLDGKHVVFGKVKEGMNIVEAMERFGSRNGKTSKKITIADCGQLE
T3 sequence (P30405 45-207 K118A): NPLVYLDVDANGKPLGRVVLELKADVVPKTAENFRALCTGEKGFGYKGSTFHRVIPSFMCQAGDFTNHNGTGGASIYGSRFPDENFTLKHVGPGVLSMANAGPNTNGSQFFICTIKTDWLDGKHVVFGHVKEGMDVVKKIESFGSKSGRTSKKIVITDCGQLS

For `C[N+]1=C(C=CC=CC=C2N(CCCCCC(=O)NCCNC(=O)C3CCNC(=O)C=CC(=O)N4CCCC(Cc5ccccc5)(C4)C(=O)NC(Cc4ccc(-c5ccc(CC(C(=O)O)C(=O)O)cc5)cc4)C(=O)NCc4ccccc4CC(=O)N3)c3ccccc3C2(C)C)C(C)(C)c2ccccc21` (centres unmarked) [*B52-Cy5], the “CypD prolyl-isomerase inhibition (in words)” value in [1] is listed as “do not inhibit CypD in vitro”. The IC50 in [1] (setting [10]), in [3] (setting [11]) and in data set [4] was above 10000 nM each time. Further, the “plasma membrane permeability / mitochondrial localization (in words)” value in [2] is on record as “poor”.
Consider `C[N+]1=C(C=CC=CC=C2N(CCCCCC(=O)NCCNC(=O)C3CCNC(=O)C=CC(=O)N4CCCC(Cc5ccccc5)(C4)C(=O)NC(Cc4ccc(-c5ccc(C(CC(=O)O)CC(=O)O)cc5)cc4)C(=O)NCc4ccccc4CC(=O)N3)c3ccccc3C2(C)C)C(C)(C)c2ccccc21` (centres unmarked) [*B53-Cy5], for which the “CypD prolyl-isomerase inhibition (in words)” value in data set [1] is “do not inhibit CypD in vitro”. The IC50 in data set [1] (setting [10]), in data set [3] (setting [11]) and in data set [4] was above 10000 nM each time. The “plasma membrane permeability / mitochondrial localization (in words)” value in data set [2] was “poor”.
Turning to `NCCOCCNC(=O)[C@@H]1CCNC(=O)/C=C/C(=O)N2CCC[C@](Cc3ccccc3)(C2)C(=O)N[C@@H](Cc2ccc(-c3ccc(CCC(=O)O)cc3)cc2)C(=O)NCc2ccccc2CC(=O)N1` [Compound B23], the IC50 in data set [1] was 7.8 nM; in data set [3] (CypB (comparator for CypB E121S), read-out: Mutant Cyclophilin Prolyl Isomerase Inhibition IC50 Values, CypB), 22 nM; in data set [3] (setting [12]), 22 ± 4 nM; in data set [3] (prolyl-isomerase inhibition, read-out: IC50 CypB), 22 nM; in [3] (setting [11]), 22 nM; in data set [5], 70 nM. The IC50 is 23 nM in data set [6]; 3 nM in data set [7] (mutant CypD R124A, read-out: Mutant Cyclophilin Prolyl Isomerase Inhibition IC50 Values, CypD R124A); 180 nM in data set [8]; 2.9 nM in data set [9]; 11000 nM in [4]. For the same compound, the “CypD prolyl-isomerase assay raw dose-response value” in data set [1] (Dose 0.000457247 µM) is 0.08239 and 0.08493 and 0.09684; in [1] (Dose 0.00137174 µM) it was 0.07973 and 0.07546 and 0.07833; in data set [1] (Dose 0.00411523 µM), 0.06213 and 0.06183 and 0.0629; in data set [1] (Dose 0.0123457 µM), 0.03857 and 0.03915 and 0.03469; in [1] (Dose 0.037037 µM), 0.02379 and 0.02491 and 0.0225; in data set [1] (Dose 0.111111 µM) it was 0.01572 and 0.01536 and 0.01393. The “CypD prolyl-isomerase assay raw dose-response value” in [1] (Dose 0.333333 µM) was 0.01408 and 0.01283 and 0.01168; in data set [1] (Dose 1 µM), 0.01156 and 0.01128 and 0.01193. Moreover, in data set [1] (prolyl-isomerase IC50), the “selectivity for CypD over CypE and CypB” value is ~ 3 fold. The “CypB prolyl-isomerase assay raw dose-response value” is 0.0629 and 0.06607 and 0.09046 in data set [3] (Dose 0.00457247 µM); 0.04838 and 0.05763 and 0.06969 in data set [3] (Dose 0.0137174 µM); 0.04508 and 0.04072 and 0.05012 in [3] (Dose 0.0411523 µM); 0.03305 and 0.03113 and 0.02819 in data set [3] (Dose 0.123457 µM); 0.02119 and 0.01977 and 0.01945 in data set [3] (Dose 0.37037 µM); 0.01691 and 0.01533 and 0.01651 in data set [3] (Dose 1.11111 µM). In addition, the “CypB prolyl-isomerase assay raw dose-response value” is 0.01532 and 0.01471 and 0.0137 in [3] (Dose 3.33333 µM); 0.01585 and 0.0132 and 0.01359 in data set [3] (Dose 10 µM). Besides, the “PPWD1 prolyl-isomerase assay raw dose-response value” in [4] (Dose 0.0201875 µM) was 0.05033 and 0.05427 and 0.05661; in data set [4] (Dose 0.0605624 µM), 0.05286 and 0.05252 and 0.05358; in data set [4] (Dose 0.181687 µM), 0.05234 and 0.04225 and 0.05023; in data set [4] (Dose 0.545062 µM), 0.05186 and 0.04473 and 0.04345; in [4] (Dose 1.63519 µM), 0.04986 and 0.04682 and 0.05314; in data set [4] (Dose 4.90556 µM) it was 0.03903 and 0.03772 and 0.04075. The “PPWD1 prolyl-isomerase assay raw dose-response value” in [4] (Dose 14.7167 µM) was 0.03486 and 0.03306 and 0.03245; in data set [4] (Dose 44.15 µM) it was 0.02892 and 0.02371 and 0.02381.
With `NCCCc1ccc(-c2ccc(C[C@@H]3NC(=O)[C@]4(Cc5ccccc5)CCCN(C4)C(=O)/C=C/C(=O)NCC[C@@H](C(=O)NCCOCCN)NC(=O)Cc4ccccc4CNC3=O)cc2)cc1` [Compound B32], the IC50 in [1] came to 6000 nM; in data set [3] (setting [11]) it was 3000 nM; in [7] (prolyl-isomerase inhibition, read-out: IC50 CypD R124A) it was 700 nM; in data set [8] it was 1100 nM; in data set [4] it was 800 nM. The “reduction in potency for CypD on replacing the carboxylate with an amine” value in [1] was 500- to 1,000 fold. The “potency improvement on CypD K118E, R124A compared to wild-type CypD” value in data set [8] (single mutants K118E, R124A) is given as 5- to 6 fold.
With `C[N+]1=C(C=CC=CC=C2N(CCCCCC(=O)NCCNC(=O)C3CCNC(=O)C=CC(=O)N4CCCC(Cc5ccccc5)(C4)C(=O)NC(Cc4ccc(-c5ccc(CC(C(=O)O)C(=O)O)cc5)cc4)C(=O)NCc4ccccc4CC(=O)N3)c3ccccc3C2(C)C)C(C)(C)c2ccccc21` (centres unmarked) [Compound B52-Cy5], the IC50 in [1] (setting [10]) was 7 nM; in [3] (setting [11]), 400 nM; in data set [4], above 10000 nM. For the same compound, the “plasma membrane permeability / mitochondrial localization (in words)” value in data set [2] was “poor and did not observe efficient plasma membrane permeability”.
Consider `C[N+]1=C(C=CC=CC=C2N(CCCCCC(=O)NCCNC(=O)C3CCNC(=O)C=CC(=O)N4CCCC(Cc5ccccc5)(C4)C(=O)NC(Cc4ccc(-c5ccc(C(CC(=O)O)CC(=O)O)cc5)cc4)C(=O)NCc4ccccc4CC(=O)N3)c3ccccc3C2(C)C)C(C)(C)c2ccccc21` (centres unmarked) [Compound B53-Cy5], for which the IC50 in data set [1] (setting [10]) was 29 nM; in data set [3] (setting [12]) it was around 1500 nM; in data set [3] (setting [11]), 1500 nM; in data set [4] it was above 2000 nM. The “plasma membrane permeability / mitochondrial localization (in words)” value in data set [2] was “poor and did not observe efficient plasma membrane permeability”.
